US20190307776A1, “AZA-S[…] HUMAN IMMUNODEFICIENCY VIRUS REPLICATION” (priority 2016, published 2019)

system: recombinant NL4-3 virus; assay: HIV cell culture assay; type: cell-based; details: Human immunodeficiency virus 1, NL43, MT2
Summary of the method: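 Antiviral activity measured in MT-2 cells infected 4–5 days with NL4-3 carrying Renilla luciferase in place of part of nef plus Gag P373S, in the presence of serial inhibitor dilutions. Read-out was luciferase activity by Dual Luciferase lysis/substrate mix.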

Compound | EC50
C=C(C)[C@@H]1CC[C@]2(CN(C)CCCN3CCS(=O)(=O)CC3)CC[C@]3(C)[C@H](CC[C@@H]4[C@@]5(C)CCN(CC(=O)NC(C)(C)C(=O)O)C(C)(C)[C@@H]5CC[C@]43C)[C@@H]12 [Example 36, 2-(2-((4aR,6aR,6bR,8aS,11R,11aR,11bR,13aR,13bR)-8a-(((3-(1,1-dioxidothiomorpholino)propyl)(methyl)amino)methyl)-4,4,6a,6b,13b-pentamethyl-11-(prop-1-en-2-yl)hexadecahydro-1H-cyclopenta[5,6]naphtho[2,1-f]isoquinolin-3(2H,4H,13bH)-yl)acetamido)-2-methylpropanoic acid] | 1.3 µM
C=C(C)[C@@H]1CC[C@]2(CNCCCN3CCS(=O)(=O)CC3)CC[C@]3(C)[C@H](CC[C@@H]4[C@@]5(C)CCN(c6ccc(C#N)cn6)C(C)(C)[C@@H]5CC[C@]43C)[C@@H]12 [Example 40, 6-((4aR,6aR,6bR,8aS,11R,11aR,11bR,13aR,13bR)-8a-(((3-(1,1-dioxidothiomorpholino)propyl)amino)methyl)-4,4,6a,6b,13b-pentamethyl-11-(prop-1-en-2-yl)hexadecahydro-1H-cyclopenta[5,6]naphtho[2,1-f]isoquinolin-3(2H,4H,13bH)-yl)nicotinonitrile] | 0.76 µM
C=C(C)[C@@H]1CC[C@]2(CO)CC[C@]3(C)[C@H](CC[C@@H]4[C@@]5(C)CCCN(C(=O)CCC(=O)O)C(C)(C)C5CC[C@]43C)[C@@H]12 (stereo partly drawn) [Example 3, 4-((7aR,7bR,9aS,12R,12aR,12bR,14aR,14bR)-9a-(hydroxymethyl)-5,5,7a,7b,14b-pentamethyl-12-(prop-1-en-2-yl)icosahydrocyclopenta[7,8]phenanthro[2,1-c]azepin-4(1H)-yl)-4-oxobutanoic acid] | > 8 µM
C=C(C)[C@@H]1CC[C@]2(CNCCCN3CCS(=O)(=O)CC3)CC[C@]3(C)[C@H](CC[C@@H]4[C@@]5(C)CCN(C(=O)/C=C/c6ccc(C(=O)O)cc6)C(C)(C)[C@@H]5CC[C@]43C)[C@@H]12 [Example 29, 4-((E)-3-((4aR,6aR,6bR,8aS,11R,11aR,11bR,13aR,13bR)-8a-(((3-(1,1-dioxidothiomorpholino)propyl)amino)methyl)-4,4,6a,6b,13b-pentamethyl-11-(prop-1-en-2-yl)hexadecahydro-1H-cyclopenta[5,6]naphtho[2,1-f]isoquinolin-3(2H,4H,13bH)-yl)-3-oxoprop-1-en-1-yl)benzoic acid] | 1.59 µM
C=C(C)[C@@H]1CC[C@]2(CNCCCN3CCS(=O)(=O)CC3)CC[C@]3(C)[C@H](CC[C@@H]4[C@@]5(C)CCN(C(=O)C(=O)NC(C)(C)C(=O)O)C(C)(C)[C@@H]5CC[C@]43C)[C@@H]12 [Example 38, 2-(2-((4aR,6aR,6bR,8aS,11R,11aR,11bR,13aR,13bR)-8a-(((3-(1,1-dioxidothiomorpholino)propyl)amino)methyl)-4,4,6a,6b,13b-pentamethyl-11-(prop-1-en-2-yl)hexadecahydro-1H-cyclopenta[5,6]naphtho[2,1-f]isoquinolin-3(2H,4H,13bH)-yl)-2-oxoacetamido)-2-methylpropanoic acid] | > 3 µM
C=C(C)[C@@H]1CC[C@]2(CNCCCN3CCS(=O)(=O)CC3)CC[C@]3(C)[C@H](CC[C@@H]4[C@@]5(C)CCN(C(=O)CC(C)(C)C(=O)O)C(C)(C)[C@@H]5CC[C@]43C)[C@@H]12 [Example 23, 4-((4aR,6aR,6bR,8aS,11R,11aR,11bR,13aR,13bR)-8a-(((3-(1,1-dioxidothiomorpholino)propyl)amino)methyl)-4,4,6a,6b,13b-pentamethyl-11-(prop-1-en-2-yl)icosahydro-3H-cyclopenta[5,6]naphtho[2,1-f]isoquinolin-3-yl)-2,2-dimethyl-4-oxobutanoic acid] | 0.39 µM
